{"source": "patent US7321027B2", "about": "“Small technetium-99m and rhenium labeled agents and methods for imaging tumors” (President and Fellows of Harvard College, priority 2000, dated 2008)", "key": {"[1]": {"molecular_target": "T1, σ2-receptors (Rattus norvegicus, UniProt Q5U3Y7)", "T1 construct": "Rat liver membranes were prepared from male Sprague-Dawley rat livers as previously described; from tissue; host or cells: male Sprague-Dawley rat liver membranes", "T1 sequence (Q5U3Y7 1-176)": "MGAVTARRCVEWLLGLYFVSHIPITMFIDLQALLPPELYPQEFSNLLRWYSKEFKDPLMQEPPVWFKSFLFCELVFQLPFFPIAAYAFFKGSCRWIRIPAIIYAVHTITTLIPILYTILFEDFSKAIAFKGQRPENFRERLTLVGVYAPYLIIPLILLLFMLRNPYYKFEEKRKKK", "experiment": "σ2-Receptor binding assay", "conditions": "σ2 vs σ1"}, "[2]": {"experiment": "Determination of lipophilicity and pKa values by HPLC", "type": "physicochemical", "conditions": "HPLC method", "protocol": "The physicochemical parameters of the rhenium complexes, i.e. lipophilicity log P, log D(pH 7.4), and pKa (Table 2) were determined using HPLC methods (Braumann, T.; Grimme, L. H. Determination of Hydrophobic Parameters for Pyridazinone Herbicides by Liquid-Liquid Partition and Reversed-Phase High-Performance Liquid Chromatography. J. Chromatogr. 1981, 206, 7-15; Stytli, C.; Theobald, A. E. Determination of Ionization Constants of Radiopharmaceuticals in Mixed Solvents by HPLC. Appl. Radiat. Isot., 1987, 38, 701-708; Johannsen, B.; Scheunemann, M.; Spies, H.; Brust, P.; Wober, J.; Syhre, R.; Pietzsch, H.-J. Technetium(V) and Rhenium(V) Complexes for 5-HT2A Serotonin Receptor Binding: Structure-Affinity Considerations. Nucl. Med. Biol., 1996, 23, 429-438; and Johannsen, B.; Berger, R.; Brust, P.; Pietzsch, H.-J; Scheunemann, M.; Seifert, S.; Spies, H.; Syhre, R. Structural Modification of Receptor-Binding Technetium-99m Complexes in Order to Improve Brain Uptake. Eur. J. Nucl. Med. 1997, 24, 316-319). […] Since log D(pH 7.4) is a composite measure of log P and pKa, the log D(PH 7.4) of Re-Compound B (1.9) is also higher than that of Re-Compound A (1.1). […] With pKa values >9 for complexes Re-Compound C and Re-Compound D, the resulting low log D(PH 7.4) values of −0.5 (Re-Compound C) and 0.7 (Re-Compound D) are not surprising, since the complexes would exist in a protonated form at pH 7.4.\nDetermination of Lipophilicity and pKa Values. The lipophilicity and pKa values of all complexes were determined using HPLC methods described previously (Stylli, C.; Theobald, A. E. Determination of Ionization Constants of 4 Radiopharmaceuticals in Mixed Solvents by HPLC. Appl. Radiat. Isot., 1987, 38, 701-708; Johannsen, B.; Scheunemann, M.; Spies, H.; Brust, P.; Wober, J.; Syhre, R.; Pietzsch, H.-J. Technetium(V) and Rhenium(V) Complexes for 5-HT2A Serotonin Receptor Binding: Structure-Affinity Considerations. Nucl. Med. Biol., 1996, 23, 429-438; and Johannsen, B.; Berger, R.; Brust, P.; Pietzsch, H.-J.; Scheunemann, M.; Seifert, S.; Spies, H.; Syhre, R. Structural Modification of Receptor-Binding Technetium-99m Complexes in Order to Improve Brain Uptake. Eur. J. Nucl. Med. 1997, 24, 316-319). […] The mobile phase was acetonitrile:phosphate buffer (0.01 M), 3:1, v/v, with the aqueous buffer adjusted to the desired pH between 3 and 11. The capacity factor (k′) was calculated for each determination (Braumann, T.; Grimme, L. H. Determination of Hydrophobic Parameters for Pyridazinone Herbicides by Liquid-Liquid Partition and Reversed-Phase High-Performance Liquid Chromatography. J. Chromatogr. 1981, 206, 7-15; El Tayer, N.; van der Waterbeemd, H.; Testa, B. Lipophilicity Measurements of Protonated Basic Compounds by Reversed-Phase High-Performance Liquid Chromatography. II. Procedure for the Determination of a Lipophilic Index Measured by Reversed-Phase High Performance Liquid Chromatography. J. Chromatogr. 1985, 320, 305-312; and Minick, D. J.; Frenz, J. H.; Patrick, M. A.; Brent, D. A. A Comprehensive Method for Determining Hydrophobicity Constants by Reversed-Phase High-Performance Liquid Chromatography. J. Med. Chem., 1988, 31, 1923-1933) and the partition coefficient at a given pH (D or log D) were calculated from the equation: log D=a log k′+b where the parameters a and b are predetermined using standard amines. The fitted points of inflection from the sigmoidal DHPLC/pH profiles permit calculation of the pKHPLC(Stylli, C.; Theobald, A. E. Determination of Ionization Constants of Radiopharmaceuticals in Mixed Solvents by HPLC. Appl. Radiat. Isot., 1987, 38, 701-708). The aqueous ionization constants pKa were calculated from the pKHPLC values after correction with a predetermined correction factor obtained using standard amine compounds. Log P values of the neutral complexes were estimated from the respective upper plateau of the sigmoidal log D/pH curve in the alkaline range."}}, "data": [{"smiles": "CCN(CC)CCCN1CC[S][Re]2(=[O])[S]CC[N]2C(=O)C1", "note": "(stereo not drawn) [Re-Compound C, [ReOAADT]-C3—NEt2]", "values": [{"measurement": "greater affinity toward the σ2-receptor subtype", "setting": "[1]", "result": 100, "unit": "fold"}, {"measurement": "pKa", "setting": "[2]", "result": 9.2}, {"measurement": "log D(pH 7.4)", "setting": "[2]; pH 7.4", "result": "−0.5"}]}]}
